Results published in patent US9964543B2, “Selection of medicaments that modulate the function and activity of interleukin 13” (GLYCAN BIOSCIENCES LLC, priority 2007, dated 2018).

Legend:
[1] = system: IL-13 dependent proliferation of TF-1.8 cells; assay: IL-13 dependent proliferation of TF-1.8 cells (luciferase); type: cell-based, human; details: 10 μg/ml, titration of IL-13 (FIG. 2A)
Source text: Heparin inhibited the proliferation of a human IL-13 responsive cell line. This occurs at very low doses and is not due to a toxic effect of the heparin because other, similarly sulfated polysaccharides, at the same concentrations of IL-13 and polysaccharide have no effect. These experiments utilize the TF-1.8 cells. TF-1.8 cells are a subclone of the TF-1 cells that have been selected for growth in IL-4, and because IL-4 and IL-13 share a receptor these cells are also responsive to IL-13. TF-1 cells were originally established from a bone marrow sample from a person with severe pancytopenia. […]
TF-1.8 cells have been transfected with the firefly luciferase gene contained in the expression vector, pPGK-puromycin-luciferase (Coombe et al, J. Immunol. Methods 215:145-150, 1998). […] The cells are counted with a Coulter Z2 Particle Counter and Size Analyzer (Coulter Electronics, England) and routinely 2.5×10^4 cells are added to microplate wells that contain either no IL-13 (negative control) or various dilutions of IL-13. When the effect of PPS, or other sulfated polysaccharides is to be measured, the wells also contain various concentrations of these molecules. […]
PPS inhibited the proliferation of a human IL-13 responsive cell line. […] When the effect of PPS is to be measured, the wells also contain various concentrations of this molecule. […]

[2] = BIACORE binding of IL-13 proteins to immobilized heparin; details: surface plasmon resonance
Source text: The optical phenomenon of surface plasmon resonance is used to monitor physical interactions between molecules. Passing a solution of a potential protein ligand (e.g. IL-13) over a sensor surface to which a target (e.g. heparin) is coupled monitors the real-time binding of protein ligands to the immobilized target. Detection is achieved by measuring refractive index changes very close to the sensor surface. When the refractive index is altered, the angle at which plasmon resonance occurs changes and this change directly correlates with the amount of protein interacting with the surface. A BIACORE 2000 sensor chip is conveniently used. It is very sensitive and its microfiuidics ensures that only small amounts of material are required.
Biotinylated heparin is immobilized on the biosensor chip. […] Solutions containing potential protein ligands of interest are injected over the sensor chip surface, and the binding is measured in real time (Femig, In: Proteoglycan protocols, Ed. R. V. Iozzo, Humana Press, Totowa, N.J., USA, 2001). Bacterially expressed recombinant human IL-13 (rhIL-13) readily binds to heparin immobilized by this method. […]
Site directed mutagenesis was performed on IL-13. […] Mutant IL-13 proteins were examined for their ability to bind heparin immobilized on a biosensor chip and binding was assessed using a BIACORE 2000 sensor chip.

TF-1 cells = assay: TF-1 cell proliferation induced by IL-13 proteins; type: cell-based, human
Description: The ability of sulfated xylans to inhibit IL-13 mediated cell proliferation is size dependent. These experiments utilized the TF-1 cell line from which the TF1.8 cells were derived. The assay is performed as described above with the TF1.8 cells the differences being the concentration of IL-13 required for cell growth and the fact that cell number is determined using a dye. Briefly, proliferation assays are carried out in 96-well microplates suitable for such assays. Cells are washed to remove any cytokine in the growth medium and then resuspended in RPMI/5% w/v FCS and routinely 2.5×10^4 cells are added to microplate wells that contain either no IL-13 (negative control) or various dilutions of IL-13. When the effect of the different sized sulfated xylans was measured, the wells also contained various concentrations of these molecules and the IL-13 concentration was held constant at 2.5 ng/ml. The cells proliferated for 48 hours, after which the number of cells present was quantified by staining with […] of the AQUEOUS ONE dye for 3 hours and then absorbance was read at 490 nm.
The IL-13R111 wild type and the IL-13Q111 variant are shown for comparison.
Details of the assay are given in Example 6.

IL-13Rα1 = target: T1, IL-13Rα1 (Homo sapiens, UniProt P78552); details: low-moderate affinity; read-out: affinity of IL-13Rα1 by itself for IL-13; cited from earlier work
T1 sequence (P78552 22-427): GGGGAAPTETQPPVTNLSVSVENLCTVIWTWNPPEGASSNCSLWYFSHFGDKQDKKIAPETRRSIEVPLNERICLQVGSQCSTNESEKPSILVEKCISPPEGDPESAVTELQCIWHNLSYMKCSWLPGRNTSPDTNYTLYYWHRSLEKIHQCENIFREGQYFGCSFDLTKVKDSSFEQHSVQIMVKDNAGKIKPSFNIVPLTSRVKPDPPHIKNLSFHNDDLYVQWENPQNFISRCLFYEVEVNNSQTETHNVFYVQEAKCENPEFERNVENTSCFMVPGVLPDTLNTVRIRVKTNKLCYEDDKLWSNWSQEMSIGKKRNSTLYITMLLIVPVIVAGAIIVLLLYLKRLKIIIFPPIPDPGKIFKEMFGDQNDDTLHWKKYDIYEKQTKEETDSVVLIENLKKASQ

IL-13 Rα2 = target: T2, IL-13 Rα2 (Homo sapiens, UniProt Q14627); details: high affinity; cited from earlier work
T2 sequence (Q14627 27-380): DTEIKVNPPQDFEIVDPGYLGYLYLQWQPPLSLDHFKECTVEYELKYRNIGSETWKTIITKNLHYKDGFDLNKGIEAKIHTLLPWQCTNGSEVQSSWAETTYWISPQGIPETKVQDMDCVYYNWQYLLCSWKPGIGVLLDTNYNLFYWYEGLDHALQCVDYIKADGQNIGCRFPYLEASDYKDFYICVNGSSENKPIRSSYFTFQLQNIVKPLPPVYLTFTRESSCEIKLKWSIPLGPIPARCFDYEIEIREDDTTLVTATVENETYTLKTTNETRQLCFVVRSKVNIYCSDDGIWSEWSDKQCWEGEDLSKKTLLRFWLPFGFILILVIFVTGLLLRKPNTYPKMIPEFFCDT

Compound	inhibition of IL-13 mediated cell proliferation [1]	binding to heparin immobilized on BIACORE sensor chip ([2]; listed as rhIL-13)	binding to heparin immobilized on BIACORE sensor chip ([2]; listed as wild type IL-13)	Concentration of IL-13 required for 50% TF-1 cell proliferation ED50 ave (TF-1 cells) [ng/mL]	cell proliferative activity in the TF-1 cell assay (TF-1 cells; FIG. 7A)	Kd (IL-13Rα1) [nM]	Kd (IL-13 Rα2) [nM]
O=S(=O)(O)OC[C@H]1O[C@@](COS(=O)(=O)O)(O[C@H]2O[C@H](COS(=O)(=O)O)[C@@H](OS(=O)(=O)O)[C@H](OS(=O)(=O)O)[C@H]2OS(=O)(=O)O)[C@@H](OS(=O)(=O)O)[C@@H]1OS(=O)(=O)O [sucrose octasulfate]	very little inhibitory activity	–	–	–	–	–	–
IL-13 WT (R111): wild type human IL-13 with arginine in the 111 position; 1IJZ.pdb monomer in docking	–	readily binds	binds heparin more strongly	1.2	comparable	2 to 10	0.5 to 1.2
